Test results: PubChem BioAssay AID1918945 (Molecular Pharmacology Branch, DTP, NCI, 2023)

Test system: 883617-216-R-J1-PDC complex spheroid viability
Test: Anticancer human tumor 883617-216-R-J1-PDC patient-derived bladder carcinoma cell line growth inhibition
Conditions: for IC50: curve of first compound; for viability, T/C: stronger effect = lower value
In short: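 Multicellular complex spheroids of tumor cells with human endothelial cells (HUVEC) and mesenchymal stem cells; the LSD1 inhibitor iadademstat was combined with standard-of-care or investigational agents. Top concentration at or near clinical Cmax, half-log dilutions; final DMSO ≤0.25%.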

[1] = second compound 0.1 µM, first compound 0.000316 µM
[2] = second compound 0.1 µM, first compound 0.001 µM
[3] = second compound 0.1 µM, first compound 0.00316 µM
[4] = second compound 0.1 µM, first compound 0.01 µM
[5] = second compound 0.1 µM, first compound 0.0316 µM
[6] = second compound 0.1 µM, first compound 0.1 µM
[7] = second compound 0.316 µM, first compound 0.000316 µM
[8] = second compound 0.316 µM, first compound 0.001 µM
[9] = second compound 0.316 µM, first compound 0.00316 µM
[10] = second compound 0.316 µM, first compound 0.01 µM
[11] = second compound 0.316 µM, first compound 0.0316 µM
[12] = second compound 0.316 µM, first compound 0.1 µM
[13] = second compound 1 µM, first compound 0.000316 µM
[14] = second compound 1 µM, first compound 0.001 µM
[15] = second compound 1 µM, first compound 0.00316 µM
[16] = second compound 1 µM, first compound 0.01 µM
[17] = second compound 1 µM, first compound 0.0316 µM
[18] = second compound 1 µM, first compound 0.1 µM
[19] = second compound 3.16 µM, first compound 0.000316 µM
[20] = second compound 3.16 µM, first compound 0.001 µM
[21] = second compound 3.16 µM, first compound 0.00316 µM
[22] = second compound 3.16 µM, first compound 0.01 µM
[23] = second compound 3.16 µM, first compound 0.0316 µM
[24] = second compound 3.16 µM, first compound 0.1 µM
[25] = second compound 10 µM, first compound 0.000316 µM
[26] = second compound 10 µM, first compound 0.001 µM
[27] = second compound 10 µM, first compound 0.00316 µM
[28] = second compound 10 µM, first compound 0.01 µM
[29] = second compound 10 µM, first compound 0.0316 µM
[30] = second compound 10 µM, first compound 0.1 µM
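Further: exposure lasted seven days after three days of spheroid growth.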
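Wherever viability, T/C is given: 100% = DMSO vehicle control luminescence.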

Row | SMILES | IC50 (second compound 0.1 µM) | IC50 (second compound 0.316 µM) | IC50 (second compound 1 µM) | IC50 (second compound 3.16 µM) | IC50 (second compound 10 µM) | viability, T/C [3] | viability, T/C [4] | viability, T/C [5] | viability, T/C [6] | viability, T/C [9] | viability, T/C [10] | viability, T/C [11] | viability, T/C [12] | viability, T/C [15] | viability, T/C [16] | viability, T/C [17] | viability, T/C [18] | viability, T/C [21] | viability, T/C [22] | viability, T/C [23] | also measured
1 | CC(C)CC(NC(=O)C(Cc1ccccc1)NC(=O)c1cnccn1)B(O)O (stereo not given) + NC1CCC(NC2CC2c2ccccc2)CC1 | 1.85 nM | 1.79 nM | 1.59 nM | 1.62 nM | 1.76 nM | 13.2% | 3.29% | 2.15% | 0.25% | 8.98% | 1.9% | 0.32% | 0.82% | 13.2% | 1.21% | 0.94% | 0.72% | 9.32% | 1.86% | 1.46% | viability, T/C [1]: 105%; viability, T/C [2]: 92.2%; viability, T/C [7]: 112%; viability, T/C [8]: 91.8%; viability, T/C [13]: 108%; viability, T/C [14]: 74.6%; viability, T/C [19]: 112%; viability, T/C [20]: 79.6%; viability, T/C [24]: 0.83%; viability, T/C [25]: 101%; viability, T/C [26]: 92.5%; viability, T/C [27]: 6.31%; viability, T/C [28]: 0.91%; viability, T/C [29]: 0.79%; viability, T/C [30]: 0.32%
2 | CC(C)CC(NC(=O)CNC(=O)c1cc(Cl)ccc1Cl)B1OC(=O)CC(CC(=O)O)(C(=O)O)O1 (stereo not given) + NC1CCC(NC2CC2c2ccccc2)CC1 | 6.36 nM | 7.23 nM | 6.46 nM | 6.58 nM | 6.38 nM | 74.7% | 32.5% | 11.9% | 1.23% | 86.4% | 34.8% | 11.1% | 0.94% | 83% | 29% | 10.3% | 0.98% | 75.8% | 34.5% | 9.37% | viability, T/C [1]: 101%; viability, T/C [2]: 112%; viability, T/C [7]: 108%; viability, T/C [8]: 110%; viability, T/C [13]: 101%; viability, T/C [14]: 107%; viability, T/C [19]: 101%; viability, T/C [20]: 108%; viability, T/C [24]: 1.62%; viability, T/C [25]: 111%; viability, T/C [26]: 106%; viability, T/C [27]: 79%; viability, T/C [28]: 31.8%; viability, T/C [29]: 4.25%; viability, T/C [30]: 0.93%
3 | COc1cc(Nc2ncc3c(n2)-c2ccc(Cl)cc2C(c2c(F)cccc2OC)=NC3)ccc1C(=O)O + NC1CCC(NC2CC2c2ccccc2)CC1 | > 1000 nM | 262 nM | 322 nM | > 1000 nM | > 1000 nM | 96.2% | 77.3% | 61.3% | 53.3% | 98.6% | 81.1% | 58.7% | 53.3% | 94.8% | 75.7% | 54.6% | 49.4% | 96.1% | 83.7% | 58.8% | viability, T/C (second compound 0.1 µM, first compound 0.316 µM): 51.5%; viability, T/C (second compound 0.1 µM, first compound 1 µM): 50.7%; viability, T/C (second compound 0.316 µM, first compound 0.316 µM): 48.8%; viability, T/C (second compound 0.316 µM, first compound 1 µM): 49.1%; viability, T/C (second compound 1 µM, first compound 0.316 µM): 48.8%; viability, T/C (second compound 1 µM, first compound 1 µM): 53%; viability, T/C [24]: 50.8%; viability, T/C (second compound 3.16 µM, first compound 0.316 µM): 55.5%; viability, T/C (second compound 3.16 µM, first compound 1 µM): 56.2%; viability, T/C [27]: 93.5%; viability, T/C [28]: 75.5%; viability, T/C [29]: 65.1%; viability, T/C [30]: 58.1%; viability, T/C (second compound 10 µM, first compound 0.316 µM): 54.7%; viability, T/C (second compound 10 µM, first compound 1 µM): 51.1%
